Assay results reported in patent US7306804B2 (priority 1998, dated 2007).
Entries after “also recorded” stand apart in the source; their conditions may differ. Where two headings read alike, the source gives them in different places.

Tests used:
[1] = tested on: PBMCs from normal and HIV-positive individuals; type: cell-based, human; conditions: for number of HIV+ individuals with positive proliferative responses: 17 HIV+ individuals tested
[2] = tested on: peptide-pulsed autologous EBV-transformed B cells (B-LCL); type: cell-based, human
[3] = tested on: anti-peptide antibodies in serum; type: binding, human; set-up: key to Anti-peptide antibody response: +, Positive (titer above control); −, Negative (titer below control)
[4] = tested on: anti-peptide antibodies in serum; type: binding, chimpanzee; set-up: key: +, Positive (Titer > 1:100); −, Negative (Titer < 1:100)
[5] = tested on: PBMCs from control and HIV-1 infected chimpanzees; type: cell-based, chimpanzee; conditions: for number of HIV-infected chimpanzees with positive proliferative responses (SI>2.0): nine HIV-infected chimpanzees tested
PBMCs = conditions: cited from earlier work
[6] = tested on: HIV envelope protein gp160; conditions: cited from earlier work; for T-cell proliferative response to immunizing peptide and HIV Env protein gp160 / antibodies recognizing recombinant gp160: immunized mice; for T-cell proliferation responses: two F1 hybrid mouse strains (B6C3 F1 and A.SW×Balb/c F1)

Sequence: VYYGVPVWKEA [Peptide 104]
- number of HIV+ individuals with positive proliferative responses [1]: eight of the 17
- T-cell proliferative response ([1]; HIV-positive patient MSf): − (−, Negative (SI < 2.0))
- T-cell proliferative response ([1]; HIV-positive patient MSm): − (−, Negative (SI < 2.0))
- T-cell proliferative response ([1]; HIV-positive patient eight): − (−, Negative (SI < 2.0))
- T-cell proliferative response ([1]; HIV-positive patient eleven): + (+, Positive (Stimulation Index [SI] > 2.0))
- T-cell proliferative response ([1]; HIV-positive patient fifteen): + (+, Positive (Stimulation Index [SI] > 2.0))
- T-cell proliferative response ([1]; HIV-positive patient five): − (−, Negative (SI < 2.0))
- T-cell proliferative response ([1]; HIV-positive patient four): − (−, Negative (SI < 2.0))
- T-cell proliferative response ([1]; HIV-positive patient fourteen): − (−, Negative (SI < 2.0))
- T-cell proliferative response ([1]; HIV-positive patient nine): + (+, Positive (Stimulation Index [SI] > 2.0))
- T-cell proliferative response ([1]; HIV-positive patient one): − (−, Negative (SI < 2.0))
- T-cell proliferative response ([1]; HIV-positive patient seven): − (−, Negative (SI < 2.0))
- T-cell proliferative response ([1]; HIV-positive patient six): + (+, Positive (Stimulation Index [SI] > 2.0))
- T-cell proliferative response ([1]; HIV-positive patient ten): − (−, Negative (SI < 2.0))
- T-cell proliferative response ([1]; HIV-positive patient thirteen): + (+, Positive (Stimulation Index [SI] > 2.0))
- T-cell proliferative response ([1]; HIV-positive patient three): + (+, Positive (Stimulation Index [SI] > 2.0))
- T-cell proliferative response ([1]; HIV-positive patient twelve): + (+, Positive (Stimulation Index [SI] > 2.0))
- T-cell proliferative response ([1]; HIV-positive patient two): + (+, Positive (Stimulation Index [SI] > 2.0))
- T-cell proliferative response ([1]; Normal-1 (HIV-seronegative)): − (−, Negative (SI < 2.0))
- T-cell proliferative response ([1]; Normal-2 (HIV-seronegative)): − (−, Negative (SI < 2.0))
- SI values ([1]; in six of the eight responding HIV+ individuals): above 4.1
- % Specific lysis at various E:T ratios 12.5:1 ([2]; E:T 12.5:1, PBMCs from patient restimulated 7 days in phytohemagglutinin medium, peptide-pulsed autologous B-LCL): 1.5%
- % Specific lysis at various E:T ratios 25:1 ([2]; E:T 25:1, PBMCs from patient restimulated 7 days in phytohemagglutinin medium, peptide-pulsed autologous B-LCL): 3.7%
- % Specific lysis at various E:T ratios 50:1 ([2]; E:T 50:1, PBMCs from patient restimulated 7 days in phytohemagglutinin medium, peptide-pulsed autologous B-LCL): 9.3%
- % Specific lysis at various E:T ratios 100:1 ([2]; E:T 100:1, PBMCs from patient restimulated 7 days in phytohemagglutinin medium, peptide-pulsed autologous B-LCL): 12.2%
- CTL activity against peptide-pulsed autologous B-LCLs ([2]; PBMCs from LTNP HD restimulated 7 days with PHA): significant CTL activity
- specific lysis of peptide-pulsed target cells ([2]; […], compared with restimulated PBMCs): also observed
- number of HIV+ individuals with positive antibody titers (<1:1280) [3]: three
- Anti-peptide antibody response ([3]; HIV-positive patient MSf): −
- Anti-peptide antibody response ([3]; HIV-positive patient MSm): −
- Anti-peptide antibody response ([3]; HIV-positive patient eight): −
- Anti-peptide antibody response ([3]; HIV-positive patient eleven): −
- Anti-peptide antibody response ([3]; HIV-positive patient fifteen): −
- Anti-peptide antibody response ([3]; HIV-positive patient five): −
- Anti-peptide antibody response ([3]; HIV-positive patient four): +
- Anti-peptide antibody response ([3]; HIV-positive patient fourteen): −
- Anti-peptide antibody response ([3]; HIV-positive patient nine): −
- Anti-peptide antibody response ([3]; HIV-positive patient one): −
- Anti-peptide antibody response ([3]; HIV-positive patient seven): −
- Anti-peptide antibody response ([3]; HIV-positive patient six): +
- Anti-peptide antibody response ([3]; HIV-positive patient ten): −
- Anti-peptide antibody response ([3]; HIV-positive patient thirteen): −
- Anti-peptide antibody response ([3]; HIV-positive patient three): −
- Anti-peptide antibody response ([3]; HIV-positive patient twelve): −
- Anti-peptide antibody response ([3]; HIV-positive patient two): +
- Anti-peptide antibody response ([3]; Normal-1 (HIV-seronegative)): −
- Anti-peptide antibody response ([3]; Normal-2 (HIV-seronegative)): −
- Anti-peptide antibody response [4]: −
- Anti-peptide antibody response ([4]; chimpanzee 40, control normal): −
- Anti-peptide antibody response ([4]; chimpanzee 73, control normal): −
- T-cell proliferative response ([5]; chimpanzee 40, control normal): − (−, Negative (SI < 2.0))
- T-cell proliferative response ([5]; chimpanzee 62, HIV-infected): + (+, Positive (Stimulation Index [SI] > 2.0))
- T-cell proliferative response ([5]; chimpanzee 69, HIV-infected): + (+, Positive (Stimulation Index [SI] > 2.0))
- T-cell proliferative response ([5]; chimpanzee 73, control normal): − (−, Negative (SI < 2.0))
- T-cell proliferative response ([5]; chimpanzee 80, HIV-infected): + (+, Positive (Stimulation Index [SI] > 2.0))
- T-cell proliferative response ([5]; chimpanzee 99, HIV-infected): + (+, Positive (Stimulation Index [SI] > 2.0))
- T-cell proliferative response ([5]; chimpanzee 100, HIV-infected): − (−, Negative (SI < 2.0))
- T-cell proliferative response ([5]; chimpanzee 139, HIV-infected): + (+, Positive (Stimulation Index [SI] > 2.0))
- T-cell proliferative response ([5]; chimpanzee 175, HIV-infected): + (+, Positive (Stimulation Index [SI] > 2.0))
- T-cell proliferative response ([5]; chimpanzee 247, HIV-infected): − (−, Negative (SI < 2.0))
- T-cell proliferative response ([5]; chimpanzee 310, HIV-infected): + (+, Positive (Stimulation Index [SI] > 2.0))
- SI values ([5]; in three HIV-infected chimpanzees): above 5.1
- number of HIV-infected chimpanzees with positive proliferative responses (SI>2.0) [5]: seven of the nine
- proliferative response of PBMCs (PBMCs; three monkeys immunized with peptide cocktail): good response
- T-cell proliferative response to immunizing peptide and HIV Env protein gp160 [6]: induced a T-cell response against both the immunizing peptide and the HIV Env protein; also recorded: induced proliferative responses to both the immunizing peptide
- antibodies recognizing recombinant gp160 [6]: did not produce antibodies that could recognize recombinant gp160
- T-cell proliferation responses [6]: relatively good T-cell proliferation responses

Sequence: SVITQACSKVSFE [Peptide 113]
- number of HIV+ individuals with positive proliferative responses [1]: five
- T-cell proliferative response ([1]; HIV-positive patient MSf): − (−, Negative (SI < 2.0))
- T-cell proliferative response ([1]; HIV-positive patient MSm): − (−, Negative (SI < 2.0))
- T-cell proliferative response ([1]; HIV-positive patient eight): − (−, Negative (SI < 2.0))
- T-cell proliferative response ([1]; HIV-positive patient eleven): − (−, Negative (SI < 2.0))
- T-cell proliferative response ([1]; HIV-positive patient fifteen): + (+, Positive (Stimulation Index [SI] > 2.0))
- T-cell proliferative response ([1]; HIV-positive patient five): − (−, Negative (SI < 2.0))
- T-cell proliferative response ([1]; HIV-positive patient four): − (−, Negative (SI < 2.0))
- T-cell proliferative response ([1]; HIV-positive patient fourteen): + (+, Positive (Stimulation Index [SI] > 2.0))
- T-cell proliferative response ([1]; HIV-positive patient nine): − (−, Negative (SI < 2.0))
- T-cell proliferative response ([1]; HIV-positive patient one): − (−, Negative (SI < 2.0))
- T-cell proliferative response ([1]; HIV-positive patient seven): + (+, Positive (Stimulation Index [SI] > 2.0))
- T-cell proliferative response ([1]; HIV-positive patient six): + (+, Positive (Stimulation Index [SI] > 2.0))
- T-cell proliferative response ([1]; HIV-positive patient ten): − (−, Negative (SI < 2.0))
- T-cell proliferative response ([1]; HIV-positive patient thirteen): + (+, Positive (Stimulation Index [SI] > 2.0))
- T-cell proliferative response ([1]; HIV-positive patient three): − (−, Negative (SI < 2.0))
- T-cell proliferative response ([1]; HIV-positive patient twelve): − (−, Negative (SI < 2.0))
- T-cell proliferative response ([1]; HIV-positive patient two): − (−, Negative (SI < 2.0))
- T-cell proliferative response ([1]; Normal-1 (HIV-seronegative)): − (−, Negative (SI < 2.0))
- T-cell proliferative response ([1]; Normal-2 (HIV-seronegative)): − (−, Negative (SI < 2.0))
- % Specific lysis at various E:T ratios 12.5:1 [2]: 0%
- % Specific lysis at various E:T ratios 25:1 [2]: 0%
- % Specific lysis at various E:T ratios 50:1 [2]: 0%
- % Specific lysis at various E:T ratios 100:1 [2]: 0%
- CTL activity against peptide-pulsed autologous B-LCLs [2]: did not serve as a CTL epitope
- Anti-peptide antibody response [3]: + and −
- number of HIV+ individuals with positive antibody titers (<1:1280) [3]: one
- Anti-peptide antibody response [4]: −
- T-cell proliferative response ([5]; chimpanzee 40, control normal): − (−, Negative (SI < 2.0))
- T-cell proliferative response ([5]; chimpanzee 62, HIV-infected): + (+, Positive (Stimulation Index [SI] > 2.0))
- T-cell proliferative response ([5]; chimpanzee 69, HIV-infected): + (+, Positive (Stimulation Index [SI] > 2.0))
- T-cell proliferative response ([5]; chimpanzee 73, control normal): − (−, Negative (SI < 2.0))
- T-cell proliferative response ([5]; chimpanzee 80, HIV-infected): + (+, Positive (Stimulation Index [SI] > 2.0))
- T-cell proliferative response ([5]; chimpanzee 99, HIV-infected): − (−, Negative (SI < 2.0))
- T-cell proliferative response ([5]; chimpanzee 100, HIV-infected): + (+, Positive (Stimulation Index [SI] > 2.0))
- T-cell proliferative response ([5]; chimpanzee 139, HIV-infected): − (−, Negative (SI < 2.0))
- T-cell proliferative response ([5]; chimpanzee 175, HIV-infected): + (+, Positive (Stimulation Index [SI] > 2.0))
- T-cell proliferative response ([5]; chimpanzee 247, HIV-infected): − (−, Negative (SI < 2.0))
- T-cell proliferative response ([5]; chimpanzee 310, HIV-infected): − (−, Negative (SI < 2.0))
- number of HIV-infected chimpanzees with positive proliferative responses (SI>2.0) [5]: five
- proliferative response of PBMCs (PBMCs; monkey, in vivo): weak responses
- T-cell proliferative response to immunizing peptide and HIV Env protein gp160 [6]: induced a T-cell response against both the immunizing peptide and the HIV Env protein; also recorded: induced proliferative responses to both the immunizing peptide
- antibodies recognizing recombinant gp160 [6]: did not produce antibodies that could recognize recombinant gp160
- T-cell proliferation responses [6]: relatively good T-cell proliferation responses
